Our source for the IC50, Activity and EC50 values is ChEMBL document CHEMBL1641393, “Triterpenoids and steroids from the fruits of Melia toosendan and their cytotoxic effects on two human cancer cell lines” (J Nat Prod, 2010).

For experiment [1], the system named is U2OS. As to the kind of experiment: Cytotoxicity against human U2OS cells after 36 hrs by MTT assay. The class given is functional, cell-based. (Tetrazolium dyes change colour on reduction, which living cells bring about.)
Experiment [2] relates to Lipaphis erysimi. Kind of experiment: Insecticidal activity against Lipaphis erysimi Kaltenbach. The class given is functional.
In experiment [3] the test system is MCF7. Kind of experiment: Cytotoxicity against human MCF7 cells after 36 hrs by MTT assay. It is filed as functional, cell-based. To be noted: MCF7, 36 h.
The subject of experiment [4] is P388. As to the kind of experiment: Cytotoxicity against mouse P388 cells. To be noted: read-out: ED50 (the source's name). The class given is functional.

Values after ≈ are worked out from the molar mass of the structure shown. Active and inactive are the calls of the source. The rule behind the calls is not given here.

Take `CCCCCCCCCCCCCCCC(=O)O[C@H]1CC[C@]2(C)[C@H]3CC[C@@]4(C)[C@H]([C@@H]5C[C@H]([C@H](O)C(C)(C)O)O[C@@H]5OC)CC[C@]4(C)C3=CC[C@H]2C1(C)C` [MELIASENIN Q]: the figures for the IC50 in experiment [1] and in experiment [3] were 3.9 µg/mL (≈ 5.25 µM) and over 50 µg/mL, respectively. Also, the result in experiment [2] was inactive.
The like results for `C[C@H](C/C=C/C(C)(C)OO)[C@@H]1[C@@H](O)C[C@]2(C)C3=CC[C@H]4C(C)(C)C(=O)CC[C@]4(C)[C@H]3CC[C@@]12C` (relative stereo) [MELIASENIN J] were, in that order, 14.3 µg/mL (≈ 30.3 µM), 1.1 µg/mL (≈ 2.33 µM) and “inactive”.
For `C[C@H](C/C=C/C(C)(C)OO)[C@@H]1[C@@H](O)C[C@]2(C)C3=CC[C@H]4C(C)(C)[C@@H](O)CC[C@]4(C)[C@H]3CC[C@@]12C` (relative stereo) [MELIASENIN I] the same measures were 9.5 µg/mL (≈ 20 µM), 11.2 µg/mL (≈ 23.6 µM) and “inactive”.
As to `O=c1[nH]cc(F)c(=O)[nH]1` [FLUOROURACIL], the IC50 in experiment [1] turned out to be 7.2 µg/mL (≈ 55.4 µM); in experiment [3], 34 µg/mL (≈ 261 µM).
With `CC[C@H](CC[C@](C)(O)[C@H]1[C@@H](O)C[C@H]2[C@@H]3[C@H](O)C=C4C[C@@H](O)CC[C@]4(C)[C@H]3CC[C@@]21C)C(C)C`, the half-maximal inhibitory concentration (IC50) in experiment [1] was 23.2 µg/mL (≈ 50.1 µM); in experiment [3], over 50 µg/mL. Besides, in experiment [2], the outcome was inactive.
Regarding `CC(C)C(C)CC[C@](C)(O)[C@H]1[C@@H](O)C[C@H]2[C@@H]3[C@H](O)C=C4C[C@@H](O)CC[C@]4(C)[C@H]3CC[C@@]21C` (single isomer, unassigned), the IC50 in experiment [1] came to 9.4 µg/mL (≈ 20.9 µM); in experiment [3] it was 47.4 µg/mL (≈ 106 µM). Also, in experiment [2], the result was inactive.
As to `COC(=O)[C@H](CCC=C(C)C)[C@@H]1[C@@H](O)C[C@]2(C)C3=CC[C@H]4C(C)(C)C(=O)CC[C@]4(C)[C@H]3CC[C@@]12C` [METHYL KULONATE], the IC50 in experiment [1] was 14.6 µg/mL (≈ 30.1 µM); in experiment [3] it was 0.41 µg/mL (≈ 0.846 µM). Further, the outcome in experiment [2] was inactive. Also, the EC50 in experiment [4] turned out to be 1.7 µg/mL (≈ 3.51 µM).
Turning to `C=C(C)C(CC[C@@H](C)[C@@H]1[C@@H](O)C[C@]2(C)C3=CC[C@H]4C(C)(C)C(=O)CC[C@]4(C)[C@H]3CC[C@@]12C)OO` (mixture of isomers) [MELIASENIN L], the figures for the IC50 in experiment [1] and in experiment [3] were 9.5 µg/mL and 9.8 µg/mL, respectively. The result in experiment [2] was inactive.
As for `C=C(C)C(CC[C@@H](C)[C@@H]1[C@@H](O)C[C@]2(C)C3=CC[C@H]4C(C)(C)CCC[C@]4(C)[C@H]3CC[C@@]12C)OO` (mixture of isomers) [MELIASENIN K], the IC50 was found to be 7.2 µg/mL in experiment [1] and 2.4 µg/mL in experiment [3]. The outcome in experiment [2] was inactive.
For `CC(C)=CCC[C@@H](C)[C@@H]1[C@@H](O)C[C@]2(C)C3=CC[C@H]4C(C)(C)C(=O)CC[C@]4(C)[C@H]3CC[C@@]12C` [KULINONE], the results for the IC50 in experiment [1] and in experiment [3] were 6.9 µg/mL (≈ 15.7 µM) and 42.5 µg/mL (≈ 96.4 µM), respectively. Besides, in experiment [2], the outcome was inactive. Moreover, the EC50 in experiment [4] amounted to 1.7 µg/mL (≈ 3.86 µM).
The like results for `COC(=O)[C@H](C/C=C/C(C)(C)OO)[C@@H]1[C@@H](O)C[C@]2(C)C3=CC[C@H]4C(C)(C)C(=O)CC[C@]4(C)[C@H]3CC[C@@]12C` [MELIASTATIN 3] were, in that order, 31.1 µg/mL (≈ 60.2 µM), 48.6 µg/mL (≈ 94.1 µM), “inactive” and 1.7 µg/mL (≈ 3.29 µM).
As to `C=C(C)[C@H](CC[C@H]1C(=O)O[C@H]2C[C@]3(C)C4=CC[C@H]5C(C)(C)C(=O)CC[C@]5(C)[C@H]4CC[C@@]3(C)[C@@H]21)OO` [MELIASENIN N], the IC50 is 8.8 µg/mL (≈ 18.2 µM) in experiment [1] and 3 µg/mL (≈ 6.19 µM) in experiment [3]. Moreover, the result in experiment [2] was inactive.
Consider `C=C(C)[C@@H](CC[C@H]1C(=O)O[C@H]2C[C@]3(C)C4=CC[C@H]5C(C)(C)C(=O)CC[C@]5(C)[C@H]4CC[C@@]3(C)[C@@H]21)OO` [MELIASENIN O], for which the IC50 in experiment [1] is 23.9 µg/mL (≈ 49.3 µM); in experiment [3], 2.3 µg/mL (≈ 4.75 µM). In addition, the outcome in experiment [2] was inactive.
Take `C=C(C)C(O)CC[C@@H](C)[C@@H]1[C@@H](O)C[C@]2(C)C3=CC[C@H]4C(C)(C)C(=O)CC[C@]4(C)[C@H]3CC[C@@]12C` (stereo partly specified) [MELIASTATIN 5]: the IC50 in experiment [1] amounted to 9.5 µg/mL (≈ 20.8 µM); in experiment [3], 16 µg/mL (≈ 35 µM). In addition, the outcome in experiment [2] was inactive. Moreover, in experiment [4], the EC50 was found to be 1.7 µg/mL (≈ 3.72 µM).
Turning to `CC(C)(/C=C/C[C@H]1C(=O)O[C@H]2C[C@]3(C)C4=CC[C@H]5C(C)(C)C(=O)CC[C@]5(C)[C@H]4CC[C@@]3(C)[C@@H]21)OO` [MELIASENIN M], the IC50 stood at 29.2 µg/mL (≈ 60.2 µM) in experiment [1] and 16.4 µg/mL (≈ 33.8 µM) in experiment [3]. In addition, the result in experiment [2] was inactive.
For `CO[C@H]1O[C@@H]([C@@H]2OC2(C)C)C[C@H]1[C@@H]1CC[C@]2(C)C3=CC[C@H]4C(C)(C)[C@@H](O)CC[C@]4(C)[C@H]3CC[C@@]12C` [MELIASENIN P] the same measures were 48.7 µg/mL (≈ 100 µM), 6.4 µg/mL (≈ 13.1 µM) and “inactive”.

A word on the IC50: it is the concentration at which inhibition is half-maximal. Low values mean inhibition by little substance, high ones a need for much substance.
